{"source": "ChEMBL document CHEMBL1151004", "about": "“The synthesis and structure activity relationships of enantiomerically pure hydroxylated oxotremorine derivatives” (Bioorg Med Chem Lett, 1992)", "key": {"[1]": {"biological_target": "Muscarinic acetylcholine receptor", "experiment": "In vitro ability to displace 3H-cis-methyltrimethylammoniummethyl-1,3-dioxolane [3H]CD) from rat cortical Muscarinic acetylcholine receptor in competition assay", "format": "protein assay"}, "[2]": {"biological_target": "Muscarinic acetylcholine receptor", "experiment": "In vitro ability to displace [3H]quinuclidinyl benzilate [3H]QNB) from rat cortical Muscarinic acetylcholine receptor in competition assay", "format": "protein assay"}, "[3]": {"experiment": "Compound was evaluated for ratio of 3H-QNB, [3H]CD"}}, "data": [{"smiles": "O=C1[C@@H](O)CCN1CC#CCN1CCCC1", "values": [{"measurement": "Ki", "setting": "[1]", "value": 0.009, "unit": "µM"}, {"measurement": "Ki", "setting": "[2]", "value": 1.4, "unit": "µM"}, {"measurement": "Ratio", "setting": "[3]", "value": 150}]}, {"smiles": "O=C1CCCN1CC#CCN1CC[C@@H](O)C1", "values": [{"measurement": "Ki", "setting": "[1]", "value": 2.38, "unit": "µM"}, {"measurement": "Ki", "setting": "[2]", "value": 1.8, "unit": "µM"}, {"measurement": "Ratio", "setting": "[3]", "value": 0.7}]}, {"smiles": "C[N+](C)(C)CCOC(N)=O", "values": [{"measurement": "Ratio", "setting": "[3]", "value": 2000}]}, {"smiles": "O=C1[C@H](O)CCN1CC#CCN1CCCC1", "values": [{"measurement": "Ki", "setting": "[1]", "value": 0.12, "unit": "µM"}, {"measurement": "Ki", "setting": "[2]", "value": 2.1, "unit": "µM"}, {"measurement": "Ratio", "setting": "[3]", "value": 17}]}, {"smiles": "O=C1C[C@H](O)CN1CC#CCN1CCCC1", "values": [{"measurement": "Ki", "setting": "[1]", "value": 8.56, "unit": "µM"}, {"measurement": "Ki", "setting": "[2]", "value": 7.5, "unit": "µM"}, {"measurement": "Ratio", "setting": "[3]", "value": 0.9}]}, {"smiles": "O=C1CCCN1CC#CCN1CCCC1", "values": [{"measurement": "Ratio", "setting": "[3]", "value": 120}]}, {"smiles": "O=C1C[C@@H](O)CN1CC#CCN1CCCC1", "values": [{"measurement": "Ki", "setting": "[1]", "value": 0.078, "unit": "µM"}, {"measurement": "Ki", "setting": "[2]", "value": 3, "unit": "µM"}, {"measurement": "Ratio", "setting": "[3]", "value": 38}]}, {"smiles": "O=C1CCCN1CC#CCN1CC[C@H](O)C1", "values": [{"measurement": "Ki", "setting": "[1]", "value": 0.61, "unit": "µM"}, {"measurement": "Ki", "setting": "[2]", "value": 1.2, "unit": "µM"}, {"measurement": "Ratio", "setting": "[3]", "value": 2}]}]}
